Measured values as given in US6660320B1, “Process for producing an antioxidant extract from the bearberry plant” (University of Saskatchewan Technologies Inc., priority 1999, dated 2003).

What was measured:
[1] = β-carotene-linoleate model system; details: 0.5 mg of BHA per 5 mL emulsion, 50° C., FIG. 1
Description: The antioxidant activity of the bearberry extract was evaluated using a β-carotene-linoleate model system (Miller, 1971). Briefly, 2-mg quantities of β-carotene were dissolved in 10 mL of chloroform. One millilitre of this solution was then pipetted into a small round-bottom flask. After removing the chloroform using a rotary evaporator, 20 mg of purified linoleic acid, 200 mg of Tween 40 emulsifier and 50 mL of aerated, distilled water were added to the flask with vigorous stirring. Aliquots (5 mL) of prepared emulsion were transferred to a series of tubes containing 2 mg of extract or 0.5 mg of BHA. As soon as the emulsion was added to each tube, the zero time absorbance was read at 470 nm (nanometers) against a reagent blank using a spectrophotometer. Subsequent absorbance readings were recorded at 15-minute intervals by keeping the samples in water bath at 50° C. until the color of β-carotene disappeared.

[2] = meat model system, TBARS of cooked comminuted pork
Description: The efficacy of the bearberry extract was tested in a meat model system. Pork cushions were obtained from Mitchell's Gourmet Foods, Ltd. (Saskatoon, SK). The meat was ground two times through a ⅛-inch plate using a Biro grinder/food mixer (AMFG Model 24, Marblehead, Ohio). Pork from the meat block was transferred to Mason jars and mixed with 20% (w/w) distilled water and various additives. Meat systems were thermal processed in an 85° C. thermostated water bath with occasional stirring by a glass rod until an internal temperature of 75±1° C. was reached. The meat systems were cooled to room temperature, homogenized in an Osterizer (Sunbeam Corporation [Canada] Ltd., Toronto, ON) blender for 30 seconds, transferred to Whirl Pak bags (Systems Plus, New Hamburg, ON) and refrigerated at 4° C. until used.
(§1) Thiobarbituric reactive substances (TBARS) were determined for the bearberry extract (Witte et al.,1970, and Bedinghaus and Ockerman, 1995). Briefly, a 5-g portion of each sample was transferred to a stomacher bag in which 50 mL of a 20% (w/v) TCA and 1.6% (v/v) phosphoric acid solution were added. Each sample was stomached (Stomacher Lab-Blender 400, Model BA6021, A. J. Seward, Co., Bury St. Edmunds, UK) for 2 minutes and then 50 mL of cold distilled water were added. After blending for an additional minute, each sample was filtered through Whatman #1 filter paper into a 100-mL volumetric flask. Each flask was filled to mark with distilled water/TCA solution (1:1 v/v) and its contents were mixed well. Five-mL aliquots from each sample were pipetted to polypropylene conical centrifuge tubes (VWR Canlab, Mississauga, ON) to which an equivalent volume of a 0.02 M aqueous TBA reagent was added. Tubes were capped and heated in a boiling water bath for 35 minutes, and then cooled in an ice bath. Absorbance measurements of the pink-colored chromogen were made at 532 nm against a reagent blank using a spectrophotometer. A ‘k’ factor of 20.1 was determined from a calibration curve based on addition of known quantities of the malonaldehyde precursor, 1,1,3,3-tetramethoxypropane, to cooked meat samples prior to extraction and an average recovery of 85.5% was found.

[3] = TBA analysis of cooked pork patties; details: 50 ppm TBHQ; 200 ppm bearberry extract; both formulations, stored at 4° C.
Description: as §1, with “Tubes were capped and heated in a boiling water bath for 35 minutes, and then cooled in an ice bath.” left out, “found. […]” for “found.”
TBA reactive substances were determined in cooked pork patties over the course of the study as has been previously described.

Structure (SMILES) | inhibition of β-carotene consumption throughout the incubation [1] | TBARS Values ([2]; Table 3, 50 ppm, 1 day of storage at 4° C.) | TBARS Values ([2]; Table 3, 50 ppm, 3 days of storage at 4° C.) | TBARS Values ([2]; Table 3, 50 ppm, 5 days of storage at 4° C.) | TBARS Values ([2]; Table 3, 50 ppm, 7 days of storage at 4° C.) | TBARS Values ([2]; Table 3, 50 ppm, 14 days of storage at 4° C.) | TBARS Values ([2]; Table 4, 50 ppm, 1 day of storage at 4° C.) | TBARS Values ([2]; Table 4, 50 ppm, 3 days of storage at 4° C.) | TBARS Values ([2]; Table 4, 50 ppm, 5 days of storage at 4° C.) | TBARS Values ([2]; Table 4, 50 ppm, 7 days of storage at 4° C.) | TBARS Values ([2]; Table 4, 50 ppm, 14 days of storage at 4° C.) | TBA results, lipid oxidation during storage [3]
COc1ccc(O)c(C(C)(C)C)c1 [BHA, butylated hydroxyanisole] | completely inhibited β-carotene consumption |  |  |  |  |  |  |  |  |  |  | 
CC(C)(C)c1cc(O)ccc1O [TBHQ, tert-butylhydroquinone] |  | 0.10 mg malonaldehyde eq./kg sample | 0.10 mg malonaldehyde eq./kg sample | 0.10 mg malonaldehyde eq./kg sample | 0.20 mg malonaldehyde eq./kg sample | 0.34 mg malonaldehyde eq./kg sample | 0.10 mg malonaldehyde eq./kg sample | 0.10 mg malonaldehyde eq./kg sample | 0.10 mg malonaldehyde eq./kg sample | 0.23 mg malonaldehyde eq./kg sample | 0.45 mg malonaldehyde eq./kg sample | retarded lipid oxidation during storage
